# In patent US20030113330A1, “Methods for treating pulmonary fibrosis” (priority 1999, published 2003):
# “Also recorded” adds a separate entry of the source.
# What was measured:
# Caspase 3/CPP32/YAMA = target: T1, Caspase 3/CPP32/YAMA (Homo sapiens, UniProt P42574); experiment: Caspase 3/CPP32/YAMA activity in intact A549 cells (Ac-DEVD-AMC); type: cell-based; settings: 50 ng/ml captopril
# T1 construct: endogenous in cells; host or cells: A549 human lung epithelial cell line
# T1 sequence (P42574 29-277): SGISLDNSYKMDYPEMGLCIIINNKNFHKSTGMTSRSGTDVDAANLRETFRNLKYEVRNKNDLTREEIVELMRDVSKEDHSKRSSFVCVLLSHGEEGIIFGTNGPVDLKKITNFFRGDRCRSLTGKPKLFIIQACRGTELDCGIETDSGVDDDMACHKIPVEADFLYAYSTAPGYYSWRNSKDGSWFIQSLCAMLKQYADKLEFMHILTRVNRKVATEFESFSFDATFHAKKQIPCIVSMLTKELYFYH
# Description: (§1) Caspase Assays. The enzymatic activities of Caspase 1/interleukin-1b-converting enzyme (ICE) and Caspase 3/CPP32/YAMA were determined in intact A549 cell cultures pre-incubated under conditions identical to those used for morphologic assays of apoptosis. After a 20 h incubation with antibodies and/or captopril, cells were trypsinized from the culture vessels and resuspended in serum-free culture medium containing anti-FAS antibodies and/or captopril at the same concentrations as during the preincubation. After one hour, fluorogenic peptide substrates specific to each enzyme were added separately to cuvettes containing cell suspension for measurement of total activity in intact cells. […] Production of fluorescent product over time was monitored in a spectrofluorometer at 380 nm excitation and 450 nm emission. […]
# (§2) The same concentration of captopril also abrogated FAS-induced stimulation of Caspase 1 (ICE) (p<0.01 compared to control) and Caspase 3/CPP32/YAMA (p<0.01 compared to FASmAb treatment alone) activities. […] Cells were then analyzed in suspension culture for the activity of Caspase 1/ICE with peptide substrate Ac-YVAD-AMC or for activity of Caspase 3/CPP32/YAMA with peptide substrate Ac-DEVD-AMC as described above. […]
# Caspase 1/ICE = target: T2, Caspase 1/ICE (Homo sapiens, UniProt P29466); experiment: Caspase 1/ICE activity in intact A549 cells (Ac-YVAD-AMC); type: cell-based; settings: 50 ng/ml captopril
# T2 construct: endogenous in cells; host or cells: A549 human lung epithelial cell line
# T2 sequence (P29466 120-404): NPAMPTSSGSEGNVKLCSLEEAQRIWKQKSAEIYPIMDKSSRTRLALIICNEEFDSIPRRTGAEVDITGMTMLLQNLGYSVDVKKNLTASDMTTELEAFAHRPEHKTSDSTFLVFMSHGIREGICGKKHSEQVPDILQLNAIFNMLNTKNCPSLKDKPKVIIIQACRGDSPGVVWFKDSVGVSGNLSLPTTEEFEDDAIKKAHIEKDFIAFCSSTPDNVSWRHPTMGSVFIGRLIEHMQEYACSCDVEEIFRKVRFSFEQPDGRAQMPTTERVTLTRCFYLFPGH
# Description: as §1, §2
# [1] = tested on: angiotensinogen (ANGEN) mRNA; experiment: Quantitative RT-PCR of angiotensinogen mRNA in Fas-activated primary rat AEC; type: cell-based; settings: Fas ligand
# Description: (§3) RT-PCR. Reverse transcriptase polymerase chain reaction (RT-PCR) assay of angiotensinogen gene products was performed as described in Wang et al., Am. J. Physiol. 276:L885-L889 (1999) in a total reaction volume of 30 μl. Total RNA was isolated by the RNeasy Mini protocol (Qiagen Co., Santa Clarita, Calif.). The reaction was performed for 1 hour at 45 C. followed by 20 cycles of PCR amplification. PCR amplification was performed with 10 ul aliquots of cDNA, equivalent to 1 ug of the starting RNA. The identity of expressed genes was determined by expected size of the PCR product in 1.6% agarose gels.
# For RT-PCR of rat-specific gene products, the following primers were used: for angiotensinogen, coding=5′ […] 3′, and noncoding=5′ […] 3′, which yields a PCR product of 226 bp by single-step RT-PCR (Pierzchalski et al., Exp. Cell Res. 234:57-65 (1997)). For β-microglobulin, the primers used were: coding=5′ […] 3′, and noncoding=5′ […] 3′, which yields a product of 249 bp (Katwa et al., Cardiovasc. Res. 29:57-64 (1995)).
# (§4) To confirm this, total RNA was isolated from human A549 cells or primary rat AEC that were unactivated (CTL) or activated with Fas-ligating CH-11 antibody or purified Fas ligand in the presence or absence of saralasin (SAR). Quantitative RT-PCR was performed with primers specific for human or rat angiotensinogen (ANGEN), β-actin or β-microglobulin (b-MG). […]
# [2] = tested on: primary rat alveolar epithelial cells; experiment: Apoptosis of rat AEC induced by human lung fibroblast-conditioned media; type: cell-based; settings: saralasin 50 ug/ml, DEVD-fmk 60 uM, anti-ANGII IgG 1 ug/ml
# Description: Fibroblast Isolation, Culture and Preparation of Conditioned Media. Primary human lung fibroblasts were isolated at the National Institute of Respiratory Diseases, Mexico. […] Of these, “fibrotic” lung fibroblast strains (HIPF-X, where X=patient number) were derived from patients suffering from either of two different types of interstitial lung disease (ILD): Idiopathic Pulmonary Fibrosis (IPF) and Chronic Hypersensitivity Pneumonitis (CHP). In both diseases, patients had clinical, functional and radiologic features which fulfill the diagnostic criteria for an ILD. […] Briefly, all patients had progressive dyspnea, bilateral reticulonodular images on chest roentgenogram, restrictive lung functional impairment with decreased lung volumes and compliance, and hypoxemia at rest that worsened with exercise. […] Patients with IPF had neither antecedents of any occupational or environmental exposure nor other known cause of ILD. […] Biopsies lacked granulomas, vasculitis, microorganisms, and inorganic material by polarized light microscopy.
# Control fibroblasts were obtained from individuals having undergone a lobectomy for removal of a primary lung tumor. […] Lung fibroblasts from normal or fibrotic tissue were isolated by trypsin dispersion, and fibroblast strains were established in Dulbecco's modified Eagle's medium (or in Ham's F-12 medium) supplemented with 10% fetal calf serum, 200 U/ml penicillin, and 200 mg/ml streptomycin. […]
# Epithelial Cell Culture and Detection of Apoptosis. […] All epithelial cell preparations were greater than 90% pure as determined by acridine orange uptake into lamellar bodies. […] Epithelial cell apoptosis was detected by the assessment, under fluorescence microscopy, of chromatin condensation and nuclear fragmentation within cytokeratin-positive cells after ethanol fixation and staining with propidium iodide. […]
# The percentage increase in rat AEC apoptosis was determined by propidium iodide assay of primary alveolar epithelial cells exposed to serum-free conditioned media, see Uhal et al., Am.
# [3] = tested on: angiotensinogen (ANGEN) mRNA; experiment: Quantitative RT-PCR of angiotensinogen mRNA in Fas-activated A549 cells; type: cell-based, human; settings: A549, CH-11
# Description: as §3
# For RT-PCR from the human A549 cells, the following primers were used: for angiotensinogen, “outer” primer of a two-step nested assay, coding=5′ GCTTTC-[…] 3′ [SEQ. ID NO. ______], and noncoding=5′ […] 3′ [SEQ. ID. NO. ______]; for the “inner” primer of the nested assay, coding=5′ […] 3′ [SEQ. ID NO. ______], and noncoding=5′ […] 3′ [SEQ. ID NO. ______]. These primers yield a final PCR product of 447 bp (8). […]
# as §4
SMILES,effect on FAS-inducible Caspase 3 activity (Caspase 3/CPP32/YAMA),effect on FAS-inducible Caspase 1 activity (Caspase 1/ICE),effect on accumulation of ANGEN mRNA during Fas activation [1],inhibition of apoptosis induced by HIPF-conditioned media [2],effect on accumulation of ANGEN mRNA during Fas activation [3]
C[C@H](CS)C(=O)N1CCC[C@H]1C(=O)O [captopril],significantly decreased; also recorded: abrogated,completely abrogated,,,
CNCC(=O)N[C@@H](CCCN=C(N)N)C(=O)N[C@H](C(=O)N[C@@H](Cc1ccc(O)cc1)C(=O)N[C@H](C(=O)N[C@@H](Cc1cnc[nH]1)C(=O)N1CCC[C@H]1C(=O)N[C@@H](C)C(=O)O)C(C)C)C(C)C [saralasin],,,had no effect,completely abrogated; also recorded: eliminated,had no effect
